In US20060030609A1, “Oxazolidinones containing oxindoles as antibacterial agents” (priority 2004, published 2006):
Converted amounts (≈) assume the structure as drawn.

What was measured:
Assay in all cases: in vitro antibacterial activity (MIC, NCCLS dilution)
Assay type in all cases: cell-based
S. aureus UC-76 SA-1 = conditions: Staphylococcus aureus, UC76
Excerpt: (§1) The in vitro antibacterial activity of the compounds of the present invention may be assessed by following procedures recommended in (1) National Committee for Clinical Laboratory Standards (January 2003), Methods for dilution antimicrobial tests for bacteria that grow aerobically, Approved Standard (6th ed), M7-A6, NCCLS, Wayne, Pa.; (2) National Committee for Clinical Laboratory Standards (March 2001), Method for antimicrobial susceptibility testing of anaerobic bacteria, Approved Standard (5th ed), M11-A4, NCCLS, Wayne, Pa.; (3) National Committee for Clinical Laboratory Standards (January 2003), MIC testing supplemental tables, M100-S13 (for use with M7-A6), NCCLS, Wayne, Pa.; and (4) Murray P R, Baron E J, Jorgensen J H, et al. Manual of Clinical Microbiology (8th ed) Washington, D.C.: American Society for Microbiology Press, 2003. The MJC value is the lowest concentration of drug which prevented macroscopically visible growth under the conditions of the test.

E.faecalis MGH-2 EF 1-1 = conditions: Enterococcus faecalis, MGH2EF11
Excerpt: as §1

S. pneumoniae SV1 SP-3 = conditions: Streptococcus pneumoniae, SV1SP3
Excerpt: as §1

SMILES | MIC90 (S. aureus UC-76 SA-1) [µg/mL] | MIC90 (E.faecalis MGH-2 EF 1-1) [µg/mL] | MIC90 (S. pneumoniae SV1 SP-3) [µg/mL]
CN1C(=O)Cc2cc(N3C[C@H](C(N)=O)OC3=O)ccc21 [Example 1, (5R)-3-(1-methyl-2-oxo-2,3-dihydro-1H-indol-5-yl)-2-oxo-oxazolidine-5-carboxylic acid amide] | 2 (≈ 7.27 µM) | 4 (≈ 14.5 µM) | 2 (≈ 7.27 µM)
CNC(=O)[C@H]1CN(c2ccc3c(c2)CC(=O)N3C)C(=O)O1 [Example 2] | 2 (≈ 6.91 µM) | 4 (≈ 13.8 µM) | 2 (≈ 6.91 µM)
CN1C(=O)Cc2cc(N3C[C@H](C(N)=O)OC3=O)cc(F)c21 [Example 3, (5R)-3-(7-fluoro-1-methyl-2-oxo-2,3-dihydro-1H-indol-5-yl)-2-oxo-oxazolidine-5-carboxylic acid amide] | 16 (≈ 54.6 µM) | 16 (≈ 54.6 µM) | 16 (≈ 54.6 µM)
CCN1C(=O)Cc2cc(N3C[C@H](C(N)=O)OC3=O)ccc21 [Example 4, (5R)-3-(1-ethyl-2-oxo-2,3-dihydro-1H-indol-5-yl)-2-oxo-oxazolidine-5-carboxylic acid amide] | 4 (≈ 13.8 µM) | 4 (≈ 13.8 µM) | 2 (≈ 6.91 µM)
CCN1C(=O)Cc2cc(N3C[C@H](C(=O)NC)OC3=O)ccc21 [Example 5] | 4 (≈ 13.2 µM) | 4 (≈ 13.2 µM) | 4 (≈ 13.2 µM)
NC(=O)[C@H]1CN(c2ccc3c(c2)CC(=O)N3CCF)C(=O)O1 [Example 6] | 4 (≈ 13 µM) | 4 (≈ 13 µM) | 4 (≈ 13 µM)
CNC(=O)[C@H]1CN(c2ccc3c(c2)CC(=O)N3CCF)C(=O)O1 [Example 7] | 4 (≈ 12.4 µM) | 4 (≈ 12.4 µM) | 4 (≈ 12.4 µM)
CC(C)N1C(=O)Cc2cc(N3C[C@H](C(N)=O)OC3=O)ccc21 [Example 8] | 4 (≈ 13.2 µM) | 4 (≈ 13.2 µM) | 4 (≈ 13.2 µM)
CNC(=O)[C@H]1CN(c2ccc3c(c2)CC(=O)N3C(C)C)C(=O)O1 [Example 9, (5R)-3-(1-isopropyl-2-oxo-2,3-dihydro-1H-indol-5-yl)-2-oxo-oxazolidine-5-carboxylic acid methylamide] | 8 (≈ 25.2 µM) | 8 (≈ 25.2 µM) | 4 (≈ 12.6 µM)
CC(C)N1C(=O)Cc2cc(N3C[C@H](C(N)=O)OC3=O)cc(F)c21 [Example 10, (5R)-3-(7-fluoro-1-isopropyl-2-oxo-2,3-dihydro-1H-indol-5-yl)-2-oxo-oxazolidine-5-carboxylic acid amide] | 4 (≈ 12.4 µM) | 4 (≈ 12.4 µM) | 4 (≈ 12.4 µM)
NC(=O)[C@H]1CN(c2ccc3c(c2)CC(=O)N3C2CC2)C(=O)O1 [Example 11, (5R)-3-(1-cyclopropyl-2-oxo-2,3-dihydro-1H-indol-5-yl)-2-oxo-oxazolidine-5-carboxylic acid amide] | 8 (≈ 26.6 µM) | 16 (≈ 53.1 µM) | 8 (≈ 26.6 µM)
CNC(=O)[C@H]1CN(c2ccc3c(c2)CC(=O)N3C2CC2)C(=O)O1 [Example 12, (5R)-3-(1-cyclopropyl-2-oxo-2,3-dihydro-1H-indol-5-yl)-2-oxo-oxazolidine-5-carboxylic acid methylamide] | 8 (≈ 25.4 µM) | 16 (≈ 50.7 µM) | 8 (≈ 25.4 µM)
CCCN1C(=O)Cc2cc(N3C[C@H](C(N)=O)OC3=O)ccc21 [Example 13, (R)-2-oxo-3-(2-oxo-1-propyl-2,3-dihydro-1H-indol-5-yl)-oxazolidine-5-carboxylic acid amide] | 4 (≈ 13.2 µM) | 8 (≈ 26.4 µM) | 8 (≈ 26.4 µM)
CCCN1C(=O)Cc2cc(N3C[C@H](C(=O)NC)OC3=O)ccc21 [Example 14, (R)-2-oxo-3-(2-oxo-1-propyl-2,3-dihydro-1H-indol-5-yl)-oxazolidine-5-carboxylic acid methylamide] | 4 (≈ 12.6 µM) | 4 (≈ 12.6 µM) | 4 (≈ 12.6 µM)
CCCN1C(=O)Cc2cc(N3C[C@H](C(N)=O)OC3=O)cc(F)c21 [Example 15, (R)-3-(7-fluoro-2-oxo-1-propyl-2,3-dihydro-1H-indol-5-yl)-2-oxo-oxazolidine-5-carboxylic acid amide] | 4 (≈ 12.4 µM) | 8 (≈ 24.9 µM) | 8 (≈ 24.9 µM)
CC(C)(C)N1C(=O)Cc2cc(N3C[C@H](C(N)=O)OC3=O)ccc21 [Example 16] | 8 (≈ 25.2 µM) | 16 (≈ 50.4 µM) | 16 (≈ 50.4 µM)
CCC(C)N1C(=O)Cc2cc(N3C[C@H](C(N)=O)OC3=O)ccc21 (stereo partly drawn) [Example 17, (R)-3-(1-sec-butyl-2-oxo-2,3-dihydro-1H-indol-5-yl)-2-oxo-oxazolidine-5-carboxylic acid amide] | 4 (≈ 12.6 µM) | 8 (≈ 25.2 µM) | 8 (≈ 25.2 µM)
CCC(C)N1C(=O)Cc2cc(N3C[C@H](C(=O)NC)OC3=O)ccc21 (stereo partly drawn) [Example 18, (R)-3-(1-sec-butyl-2-oxo-2,3-dihydro-1H-indol-5-yl)-2-oxo-oxazolidine-5-carboxylic acid methylamide] | 8 (≈ 24.1 µM) | 8 (≈ 24.1 µM) | 8 (≈ 24.1 µM)
CC(CF)N1C(=O)Cc2cc(N3C[C@H](C(N)=O)OC3=O)ccc21 (stereo partly drawn) [Example 19, (R)-3-[1-(2-fluoro-1-methyl-ethyl)-2-oxo-2,3-dihydro-1H-indol-5-yl]-2-oxo-oxazolidine-5-carboxylic acid amide] | 4 (≈ 12.4 µM) | 4 (≈ 12.4 µM) | 4 (≈ 12.4 µM)
CC(C)CN1C(=O)Cc2cc(N3C[C@H](C(N)=O)OC3=O)ccc21 [Example 20, (R)-3-(1-Isobutyl-2-oxo-2,3-dihydro-1H-indol-5-yl)-2-oxo-oxazolidine-5-carboxylic acid amide] | 64 (≈ 202 µM) | 64 (≈ 202 µM) | 64 (≈ 202 µM)
CNC(=O)[C@H]1CN(c2ccc3c(c2)CC(=O)N3CC(C)C)C(=O)O1 [Example 21, (R)-3-(1-isobutyl-2-oxo-2,3-dihydro-1H-indol-5-yl)-2-oxo-oxazolidine-5-carboxylic acid methylamide] | 64 (≈ 193 µM) | 64 (≈ 193 µM) | 64 (≈ 193 µM)
NC(=O)[C@H]1CN(c2ccc3c(c2)CC(=O)N3C2CCC2)C(=O)O1 [Example 22, (R)-3-(1-cyclobutyl-2-oxo-2,3-dihydro-1H-indol-5-yl)-2-oxo-oxazolidine-5-carboxylic acid amide] | 32 (≈ 101 µM) | 64 (≈ 203 µM) | 64 (≈ 203 µM)
CNC(=O)[C@H]1CN(c2ccc3c(c2)CC(=O)N3C2CCC2)C(=O)O1 [Example 23, (R)-3-(1-cyclobutyl-2-oxo-2,3-dihydro-1H-indol-5-yl)-2-oxo-oxazolidine-5-carboxylic acid methylamide] | 16 (≈ 48.6 µM) | 64 (≈ 194 µM) | 32 (≈ 97.2 µM)
